From publication PMC3499586, “Heterotrimeric G-protein Signaling Is Critical to Pathogenic Processes in Entamoeba histolytica” (PLoS Pathogens, 2012)

T1: EhRGS-RhoGEF (E. histolytica, UniProt C4LYV4 1-519)
T1 chain: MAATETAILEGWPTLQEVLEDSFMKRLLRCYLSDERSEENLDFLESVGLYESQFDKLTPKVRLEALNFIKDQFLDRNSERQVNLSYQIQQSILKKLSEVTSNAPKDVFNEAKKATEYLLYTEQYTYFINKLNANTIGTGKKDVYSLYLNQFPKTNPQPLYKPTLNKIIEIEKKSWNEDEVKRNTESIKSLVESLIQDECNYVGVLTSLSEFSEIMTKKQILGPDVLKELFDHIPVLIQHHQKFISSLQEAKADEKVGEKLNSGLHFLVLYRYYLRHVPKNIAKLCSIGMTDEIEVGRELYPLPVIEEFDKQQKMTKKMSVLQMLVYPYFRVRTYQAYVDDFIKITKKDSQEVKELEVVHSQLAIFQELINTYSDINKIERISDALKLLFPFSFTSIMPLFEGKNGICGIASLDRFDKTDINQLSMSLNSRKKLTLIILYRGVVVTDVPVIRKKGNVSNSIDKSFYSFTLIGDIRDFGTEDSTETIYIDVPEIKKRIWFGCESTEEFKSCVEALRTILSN

B1: EhGα1 (recombinant, purified from E. coli) (natural protein)
chain: MGCGQSKDNSIDKQIVEMAKSKPITVMLLGSGESGKSTIAKQLKILFGGGFPEQERATHKSSICSNVVTCMRTLIEQSAILNHPMKYQPKSKEFTTEDPVTLPFSPELVGDVEALWADEGIQATYEESAKFQLPDCAKYLFENVKRIAMEDYVPTEEDLIHNRTKTTGIHEYDFVVKDIPFHLIDVGGQRSERKKWVSFFSDVDCAIFVTSLAEYDMKLYEDGNTSRLTESIAVFKDIMTNEFLKGAVKLIFLNKMDLFEEKLTKVPLNTIFPEYTGGDNAVMGAQYIQQLFTGKLQTEEMNISGADGTANIEGAVNEKVYTNPTNATDGSNIKRVFMLAVDVIMKNMAANGKMRPTK

Assays:
EhGα1 = target: T2, EhGα1 (Entamoeba histolytica, UniProt C4M483); test: […]GTPγS radionucleotide binding; details: 30 °C; association limited by spontaneous GDP release; labelled compound; a rate, not an affinity
T2 construct: gene EHI_140350; E. coli; N-terminal TEV-cleavable His6 tag; HM-1:IMSS used for trophozoite work

human Gαi1 = target: T3, human Gαi1 (Homo sapiens, UniProt P63096); test: […]GTPγS radionucleotide binding; details: 30 °C; association limited by spontaneous GDP release; labelled compound; a rate, not an affinity; figure legend gives 0.06 ±0.01
T3 construct: gene GNAI1; purified protein; details not in main text

EhRGS-RhoGEF = target: T1, EhRGS-RhoGEF; test: SPR

T3 sequence (P63096 2-354): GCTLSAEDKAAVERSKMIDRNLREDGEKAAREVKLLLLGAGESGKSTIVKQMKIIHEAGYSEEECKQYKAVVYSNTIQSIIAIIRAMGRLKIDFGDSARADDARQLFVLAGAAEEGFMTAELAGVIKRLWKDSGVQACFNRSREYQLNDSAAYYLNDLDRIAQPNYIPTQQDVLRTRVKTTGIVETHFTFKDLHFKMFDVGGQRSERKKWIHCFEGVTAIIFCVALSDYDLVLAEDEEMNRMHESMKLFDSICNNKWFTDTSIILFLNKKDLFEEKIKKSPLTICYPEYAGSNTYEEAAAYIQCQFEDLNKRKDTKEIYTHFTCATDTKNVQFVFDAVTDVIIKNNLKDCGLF

Molecule	kobs (EhGα1)	kobs (human Gαi1)	Kd (EhRGS-RhoGEF)
Nc1nc2c(ncn2[C@@H]2O[C@H](COP(=O)(O)OP(=O)(O)OP(O)(O)=S)[C@@H](O)[C@H]2O)c(=O)[nH]1 [GTPγS]	0.27 ± 0.06 min⁻¹	0.064 min⁻¹	–
B1	–	–	2100 nM
